One assay concerns the target KDR kinase (790-1356 AA) (Homo sapiens (Human), UniProt P35968). Kind of assay: Inhibitory activity at KDR kinase (Lance Ultra Ulight-TK assay). The class given is biochemical. As to the method:
Inhibitory Activity of Compounds at KDR Kinase
• [Experimental method]: Use Lance@Ultra Ulight™-TK assay kit from PerKinElmer to evaluate the inhibitory activity of compounds at KDR kinase. • [Instrument]: PerKinElmer's ENVISION plate reader • [Materials]: Optiplate-384 well plate (PerKinElmer), kinase buffer (50 mM Hepes pH7.5, 0.25 mM EGTA, 2 mM DTT, 0.01% Tween 20, 10 mM Mg^2+, 0.5 mM Mn^2+), KDR kinase (790-1356 AA, Crown Bioscience), KDR kinase substrate (PerKinElmer catalogue # TRF0127-M), Lance@Eu-W1024-anti-phosphotyrosine (PT66) (PerKinElmer, catalogue #AD0068), ATP (Invitrogen), DMSO (Sigma, catalogue #34869), purified water (Millipore, type: Milli-Q). • [Study conditions]: Mix KDR (final concentration: 20 nM) and compound (final DMSO: 0.5%), pre-incubate for 20 min at 30° C.; then add ATP (final concentration: 90 μM) and the substrate (final concentration […]). React for 2 hrs at 30° C. After the reaction, add antibody and reaction for 60 min at 30° C. Read the plate (615 nm, 665 nm), calculate the ratio of the value at 665 nm vs 615 nm and analyze the data. • [Samples]: Compounds in the examples and Sorafenib (positive control) • [Data Analysis]: Use CBIS data analysis software to calculate IC50 values

The next assay deals with pERK in MDA-MB-231 cells. Kind of assay: Inhibitory activity at pERK (In Cell Western, MDA-MB-231 cells). The note with it: Homo sapiens, MDA-MB-231, MDA-MB-231 cells; read-out: MDA-MB-231 pERK IC50. The class given is cell-based. As to the method:
Inhibitory Activity of Compounds at pERK
When the cells reach 80% confluency, collect cells by trypsinization and centrifugation at 800 rpm for 3 minutes. Resuspend cells with appropriate volume of medium and count cell numbers. Adjust cell concentration to 70000 cells/mL, and split 100 μL cell suspension per well into 96-well plates. Transfer the plates into cell culture incubator (37° C., 5% CO2) and incubate cells overnight. Discard the medium, wash with PBS once, Prepare compound serial dilutions in culture medium with total 8 compound concentrations at 3-fold serial dilutions (the final top concentration starts from 30 μM). Dispense 75 μL DMEM medium (with 0.1% BSA) and 25 μL of each test compound dilution into corresponding wells with DMSO at 0.3% final concentration. Continue incubating cells in cell culture incubator for additional 2 hrs at 37° C., 5% CO2. Discard culture medium, and wash cells once with PBS. Add 100 μL of 4% formaldehyde solution to each well and fix for 20 min. Discard the formaldehyde, then add 100 μL ice-cold 100% methanol at 4° C. for 20 min. Discard methanol, wash with PBS three times. Add to each well 100 μL of 2% BSA solution, seal for 30 min at room temperature. Discard the BSA solution, add to each well 50 μL of the 1st antibody solution (prepared with 2% BSA, 1:250 dilution), incubate at 4° C. overnight. Discard the 1^St antibody solution, wash with PBS four times. Add to each well […] the 2nd antibody solution (prepared with 1% BSA, 1:1000 dilution), incubate at room temperature for 1 hr. Discard the 2nd antibody solution, wash with PBS four times, add to each well 100 μL PI solution (1.5 μM), incubate at room temperature for 30 min. Use Acumen (TPP) to measure the fluorescence. • [Samples]: Compounds in the examples and sorafenib (positive control) • [Data Analysis]: Use CBIS data analysis software to calculate IC50 values

A further assay has as its system PLC-PRF-5 cells. Kind of assay: Inhibition of proliferation of PLC-PRF-5 cells (ATPlite). The class given is cell-based. The note with it: Homo sapiens, PLC-PRF-5, PLC-PRF-5 cells; read-out: PLC-PRF-5 cell proliferation IC50. The source says: Inhibitory Activity of Compounds to the Proliferation of PLC-PRF-5 Cells
• [experimental Method]: Use PerKinElmer's ATPlite™ Luminescence ATP Detection Assay System to evaluate the inhibitory activity of compounds to the proliferation of PLC-PRF-5 cells. • [Instruments]: ENVISION plate reader (PerKinElmer) and centrifuge (Thermo Scientific, Sorvall ST16R) • [material]: PLC-PRF-5 cells (ATCC), 96-well plate (Nunc, #165305), DMEM medium (Gibco, #11965-092), PBS (Invitrogen, #10010023), fetal bovine serum (Gibco, #16000044), DMSO (Sigma, #D2650), ATPlite™ Luminescence ATP Detection Assay System (PerkinElmer, #6016949), purified water (Millipore, type: Milli-Q). • [Protocol]: Grow PLC-PRF-5 cells in DMEM supplemented with 10% FBS. When the cells reach 80% confluency, collect cells by trypsinization and centrifugation at 800 rpm for 3 min. Resuspend cells with appropriate volume of medium and count cell numbers. Adjust cell concentration to 50000 cells/mL, and split 160 μL cell suspension per well into 96-well plates. Transfer the plates into cell culture incubator (37° C., 5% CO2) and incubate cells for 2 hrs. Prepare compound serial dilutions in culture medium with total 8 compound concentrations at 3-fold serial dilutions (the final top concentration starts from 30 μM). Dispense 40 μL of each test compound dilution into corresponding wells with DMSO at 0.3% final concentration. Continue incubating cells in cell culture incubator for additional 96 hrs at 37° C., 5% CO2. Discard culture medium, and wash cells once with PBS. Add 50 μL cell lysis buffer per well and shake plates for 5 min at room temperature to ensure complete lysis of cells. Then add 50 μL of substrate solution and shake plates for 1 min at room temperature. Allow the plates to incubate at room temperature for 5 min, followed by recording the luminescence signals using Envision, and subsequent data analysis. • [Samples]: Compounds in the examples and Sorafenib (positive control) • [Data analysis]: Use CBIS data analysis software to calculate IC50 values

KDR kinase (790-1356 AA), sequence (P35968 790-1356): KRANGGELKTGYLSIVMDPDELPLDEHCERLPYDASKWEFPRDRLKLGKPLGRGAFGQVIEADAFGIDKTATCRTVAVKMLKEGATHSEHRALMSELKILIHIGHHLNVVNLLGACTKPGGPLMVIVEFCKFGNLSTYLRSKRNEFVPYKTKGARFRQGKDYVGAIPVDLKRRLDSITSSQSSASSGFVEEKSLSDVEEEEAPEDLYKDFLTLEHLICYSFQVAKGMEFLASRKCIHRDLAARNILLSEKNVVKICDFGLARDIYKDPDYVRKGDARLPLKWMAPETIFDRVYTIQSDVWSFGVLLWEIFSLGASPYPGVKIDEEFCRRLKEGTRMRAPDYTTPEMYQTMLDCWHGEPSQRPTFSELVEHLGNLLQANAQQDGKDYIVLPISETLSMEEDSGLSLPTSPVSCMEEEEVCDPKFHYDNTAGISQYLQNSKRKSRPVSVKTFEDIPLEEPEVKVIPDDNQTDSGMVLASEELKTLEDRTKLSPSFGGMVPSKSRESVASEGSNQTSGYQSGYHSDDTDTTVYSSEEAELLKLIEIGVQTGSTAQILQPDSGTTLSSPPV

For the compound `O=C(Nc1cccc(C(F)(F)F)c1)Nc1ccc(Oc2cc(NC(=O)C3CC3)ncn2)c(F)c1` [Exe. 102], the IC50 was 15 nM against KDR kinase (790-1356 AA), 294 nM with pERK in MDA-MB-231 cells and 936 nM in the assay with PLC-PRF-5 cells.
`COCC(=O)Nc1cc(NC(=O)Nc2ccc(Oc3ccnc(NC(=O)C4CC4)c3)c(F)c2)cc(C(F)(F)F)c1` [Exe. 043]: the IC50 against KDR kinase (790-1356 AA) stood at 18.1 nM; in the assay with pERK in MDA-MB-231 cells it was 30 nM; in the assay on PLC-PRF-5 cells it was 604 nM.
As to `CC(C)N1CCN(c2cc(NC(=O)Nc3ccc(Oc4ccnc(NC(=O)C5CC5)c4)c(F)c3)cc(C(F)(F)F)c2)CC1` [Exe. 054], the values for the IC50 against KDR kinase (790-1356 AA), in the assay on pERK in MDA-MB-231 cells and with PLC-PRF-5 cells were 15.3 nM, 97.6 nM and 340 nM, respectively.
In the same order, the values of `Cc1cc(Oc2cc(NC(=O)C3CC3)ncn2)ccc1NC(=O)Nc1cc(OC(F)(F)F)ccc1F` [Exe. 080] are 8.1 nM, 29 nM and 3040 nM.
Taken in the same sequence, the figures for `Cc1cc(Oc2cc(NC(=O)C3CC3)ncn2)ccc1NC(=O)Nc1ccc(Cl)c(OC(F)(F)F)c1` [Exe. 082] were 6.8 nM, 36 nM and 22500 nM.
As for `Cc1cc(Oc2cc(NC(=O)C3CC3)ncn2)ccc1NC(=O)Nc1ccc(F)c(OC(F)(F)F)c1` [Exe. 081], the IC50 worked out at 13.3 nM on KDR kinase (790-1356 AA), 104 nM in the assay with pERK in MDA-MB-231 cells and 16000 nM with PLC-PRF-5 cells.
Taken in the same sequence, the figures for `CCOC(=O)C(C)(C)CNc1cc(NC(=O)Nc2ccc(Oc3ccnc(NC(=O)C4CC4)c3)c(F)c2)cc(C(F)(F)F)c1` [Exe. 050] were 12.8 nM, 110 nM and 2230 nM.
In the same order, the values of `Cc1cc(Oc2cc(NC(=O)C3CC3)ncn2)c(F)cc1NC(=O)Nc1ccc(Cl)c(C(C)(F)F)c1` [Exe. 091] are 12.8 nM, 53 nM and 7600 nM.
Taken in the same sequence, the figures for `Cc1ccc(NC(=O)Nc2ccc(Oc3ccnc(NC(=O)C4CC4)c3)cc2F)cc1C(F)(F)F` [Exe. 207] were 10.2 nM, 8.3 nM and 71 nM.
With `CN1CCC(c2cc(NC(=O)Nc3ccc(Oc4ccnc(NC(=O)C5CC5)c4)cn3)cc(C(F)(F)F)c2)CC1` [Exe. 134], the results for the IC50 against KDR kinase (790-1356 AA), in the assay on pERK in MDA-MB-231 cells and with PLC-PRF-5 cells were 7.8 nM, 33 nM and 199 nM, respectively.
In the same order, the values of `Cc1nc(NC(=O)Nc2ccc(Cl)c(C(F)(F)F)c2)ccc1Oc1cc(NC(=O)C2CC2)ncn1` [Exe. 011] are 13.4 nM, 261 nM and 19500 nM.
In the same order, the values of `O=C(Nc1cncc(C(F)(F)F)c1)Nc1ccc(Oc2ccnc(NC(=O)C3CC3)c2)cc1F` [Exe. 213] are 10.7 nM, 7.2 nM and 79 nM.
Taken in the same sequence, the figures for `CN1CCC(C(=O)c2cc(NC(=O)Nc3ccc(Oc4ccnc(NC(=O)C5CC5)c4)c(F)c3)cc(C(F)(F)F)c2)CC1` [Exe. 040] were 15.2 nM, 134 nM and 640 nM.
Regarding `Cc1cc(Oc2ccnc(NC(=O)C3CC3)c2)ccc1NC(=O)Nc1cc(C(C)(F)F)ccc1F` [Exe. 198], the IC50 on KDR kinase (790-1356 AA) was determined as 8.3 nM; in the assay on pERK in MDA-MB-231 cells, 5.7 nM; in the assay on PLC-PRF-5 cells, 740 nM.
Taken in the same sequence, the figures for `O=C(Nc1cc(-c2cn[nH]c2)cc(C(F)(F)F)c1)Nc1ccc(Oc2ccnc(NC(=O)C3CC3)c2)c(F)c1` [Exe. 238] were 15.6 nM, 57.3 nM and 2220 nM.
In the same order, the values of `Cc1cc(NC(=O)Nc2ccc(F)c(C(F)(F)F)c2)cc(Oc2cc(NC(=O)C3CC3)ncn2)c1` [Exe. 092] are 192 nM, 57 nM and 17200 nM.
In the same order, the values of `Cc1cc(Oc2cc(NC(=O)C3CC3)ncn2)ccc1NC(=O)Nc1cc(N2CCOCC2)cc(C(F)(F)F)c1` [Exe. 087] are 12.9 nM, 36 nM and 5050 nM.
With `CN1C(=O)C2(CC2)c2cc(NC(=O)Nc3ccc(Oc4ccnc(NC(=O)C5CC5)c4)cc3)ccc21` [Exe. 066], the IC50 against KDR kinase (790-1356 AA) is 8 nM; in the assay on pERK in MDA-MB-231 cells, 16 nM; in the assay with PLC-PRF-5 cells, 2500 nM.
As for `O=C(Nc1ccc(Cl)c(C(F)(F)F)c1)Nc1cc(Oc2cc(NC(=O)C3CC3)ncn2)ccc1F` [Exe. 002, N-[6-[3-[[4-chloro-3-(trifluoromethyl)phenyl]carbamoyl-amino]-4-fluoro-phenoxy]pyrimidin-4-yl]cyclopropanecarboxamide], the figures for the IC50 at KDR kinase (790-1356 AA), with pERK in MDA-MB-231 cells and with PLC-PRF-5 cells were 5.4 nM, 15.5 nM and 3400 nM, respectively.
Taken in the same sequence, the figures for `O=C(Nc1cccc(Oc2cc(NC(=O)C3CC3)ncn2)c1)Nc1ccc(Cl)c(C(F)(F)F)c1` [Exe. 012] were 9.9 nM, 71 nM and 10300 nM.
On to `CC(F)(F)c1cc(NC(=O)Nc2cccc(Oc3cc(NC(=O)C4CC4)ncn3)c2)ccc1Cl` [Exe. 122], for which the IC50 at KDR kinase (790-1356 AA) was 8.7 nM; in the assay on pERK in MDA-MB-231 cells it was 133 nM; in the assay on PLC-PRF-5 cells, 22000 nM.
In the same order, the values of `O=C(Nc1cc(F)cc(Oc2cc(NC(=O)C3CC3)ncn2)c1)Nc1ccc(F)c(C(F)(F)F)c1` [Exe. 097] are 62.8 nM, 137 nM and 9100 nM.
Taken in the same sequence, the figures for `CN1CCC(Nc2cc(C(F)(F)F)cc(NC(=O)Nc3ccc(Oc4ccnc(NC(=O)C5CC5)c4)c(F)c3)n2)CC1` [Exe. 173] were 22.5 nM, 80 nM and 254 nM.
Turning to `Cc1cc(NC(=O)Nc2cccc(C(F)(F)F)c2)ccc1Oc1cc(NC(=O)C2CC2)ncn1` [Exe. 112], the figures for the IC50 against KDR kinase (790-1356 AA), with pERK in MDA-MB-231 cells and with PLC-PRF-5 cells were 14.5 nM, 85 nM and 2000 nM, respectively.
Taken in the same sequence, the figures for `Nc1nnc(-c2cc(NC(=O)Nc3ccc(Oc4ccnc(NC(=O)C5CC5)c4)c(F)c3)cc(C(F)(F)F)c2)o1` [Exe. 042] were 11.5 nM, 94 nM and 3560 nM.
Taken in the same sequence, the figures for `O=C(Nc1cccc(Oc2cc(NC(=O)C3CC3)ncn2)c1)Nc1ccc(F)c(C(F)(F)F)c1` [Exe. 119] were 14.9 nM, 184 nM and 18800 nM.

The values above are taken from patent publication US9359338B2, “Cyclopropanecarboxamido-substitute aromatic compounds as anti-tumor agents” (Crown Bioscience Inc. (Taiwan), priority 2012, dated 2016).
